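All cell lines were grown in 96-well plates and treated with compound for 48 hours. GI50: concentration for 50% inhibition of growth. TGI denotes the concentration required for complete inhibition of growth.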

What all share (assay): NCI anticancer screen, dose series, 48 h
In assay [1] the test system is 786-0 renal.
In assay [2] the test system is ACHN renal.
In assay [3] the test system is COLO 205 colon.
Assay [4] deals with DU-145 prostate.
Assay [5] relates to HT29 colon.
For assay [6], the system named is SF-295 CNS.
Assay [7] deals with SK-MEL-28 melanoma.
Assay [8] deals with SK-MEL-5 melanoma.
The test system of assay [9] is TK-10 renal.
The subject of assay [10] is U251 CNS.

On to `CCCCNc1ncnc2c1cnn2-c1ccccc1`, for which the GI50 was 8.9 µM in [1]; 9.6 µM in assay [2]; 1.15 µM in [3]; 3.47 µM in [4]; 0.565 µM in assay [5]; 1.88 µM in [6]. The GI50 in assay [7] is 10.1 µM; in assay [8], 1.19 µM; in assay [9] it was 5.35 µM; in assay [10], 2.84 µM. For the same molecule, the TGI in [1] was 53 µM; in [2], > 100 µM; in [3], 11.7 µM; in assay [4], 32.1 µM; in [5], 13.8 µM; in assay [6] it was 20.3 µM. In addition, the TGI in [7] is > 100 µM; in [8] it was 11.1 µM; in assay [9], > 57.9 µM; in [10], > 61.8 µM.

Take `Fc1ccccc1CN1COc2c(cc(Cl)c3cccnc23)C1`: the TGI in assay [1] turned out to be 21.5 µM; in [2] it was 10.3 µM; in [3], 28.3 µM; in assay [4], 16.4 µM; in [5], 20.4 µM; in assay [6], 12.1 µM. Also, the TGI in assay [7] was 18.7 µM; in [8], 3.75 µM; in assay [9], 18 µM; in assay [10] it was 12.8 µM.

`Cc1cc(NC(=O)NCc2ccc(N3C(N)=NC(N)=NC3(C)C)cc2)ccc1S(=O)(=O)F`: the GI50 in assay [1] was 5.21 µM; in assay [2] it was 46.2 µM; in [3], 2.77 µM; in assay [4], 1.35 µM; in assay [5], 0.37 µM; in assay [6] it was 1.57 µM. For the same molecule, the GI50 in assay [7] is 17.7 µM; in [8], 1.11 µM; in [9], 5.5 µM; in assay [10], 0.832 µM. The TGI in assay [1], in assay [2], in assay [3], in [4], in assay [5] and in [6] was > 100 µM each time. The TGI in [7] was > 100 µM; in assay [8], 58.7 µM; in [9], > 100 µM; in [10], > 100 µM.

Regarding `[O]=[Sn]([CH]1CCCCC1)[CH]1CCCCC1`, the GI50 was 0.214 µM in assay [1]; 0.309 µM in assay [2]; 0.249 µM in [3]; 0.259 µM in assay [4]; 0.298 µM in assay [5]; 0.319 µM in assay [6]. Moreover, the GI50 was 0.279 µM in [7], 0.259 µM in [8], 0.267 µM in [9] and 0.0514 µM in assay [10]. For the same molecule, the TGI in [1] came out at 0.456 µM; in assay [2] it was 1.12 µM; in assay [3], 0.731 µM; in assay [4] it was 0.839 µM; in [5], 0.866 µM; in assay [6], 1.35 µM. Moreover, the TGI was found to be 1.14 µM in assay [7], 1.14 µM in assay [8], 1.14 µM in assay [9] and 0.2 µM in assay [10].

For the molecule `Nc1ccc(CC[C@H]2CCC/C=C/[C@@H]3C[C@H](O)C[C@H]3[C@H](O)/C=C/C(=O)O2)cc1`, the GI50 in assay [1] is 0.0239 µM; in assay [2] it was 0.0413 µM; in [3], 0.0188 µM; in assay [4] it was 0.107 µM; in assay [5] it was 0.0336 µM; in [6], 0.0476 µM. The GI50 is 0.0244 µM in assay [7], < 0.013 µM in assay [8], 0.0382 µM in assay [9] and 0.048 µM in [10]. In addition, the TGI is 0.057 µM in [1]; > 100 µM in assay [2]; 0.034 µM in assay [3]; > 100 µM in [4]; 0.577 µM in assay [5]; > 100 µM in [6]. Besides, the TGI in [7] was 1.43 µM; in assay [8], 0.0236 µM; in [9] it was 0.831 µM; in assay [10] it was > 100 µM.

Turning to `O=c1c(I)c[nH]cc1I`, the GI50 in [1], in [2], in [3], in [4], in assay [5] and in assay [6] was > 100 µM each time. For the same molecule, the GI50 in assay [7], in [8], in assay [9] and in assay [10] was > 100 µM in each case. The TGI in assay [1], in [2], in [3], in assay [4], in [5] and in assay [6] was > 100 µM throughout. Besides, the TGI in assay [7], in assay [8], in assay [9] and in assay [10] was > 100 µM in each case.

On to `Cc1cc(N2CCC(N3CCCC3)CC2)nc(/N=C(\N)Nc2ccc(Cl)c(Cl)c2)n1`, for which the GI50 in assay [1] was 1.82 µM; in assay [2], 1.71 µM; in [3], 1.7 µM; in assay [4], 1.75 µM; in assay [5] it was 1.85 µM; in [6] it was 1.84 µM. Further, the GI50 in assay [7] was 1.91 µM; in assay [8], 1.65 µM; in assay [9], 1.93 µM; in [10] it was 1.79 µM. The TGI turned out to be 3.41 µM in [1]; 3.22 µM in [2]; 3.26 µM in assay [3]; 3.44 µM in assay [4]; 3.87 µM in assay [5]; 3.55 µM in [6]. For the same molecule, the TGI in assay [7] turned out to be 3.41 µM; in assay [8] it was 3.02 µM; in [9] it was 3.72 µM; in [10], 3.35 µM.

Regarding `Cc1ccc(-c2nc(NCCOCCOCCN)nc(N3CCN(c4ccccn4)CC3)n2)cc1`, the GI50 was 12.4 µM in assay [1]; 14.7 µM in [2]; 6.89 µM in assay [3]; 16.6 µM in assay [4]; 8.99 µM in [5]; 18.4 µM in assay [6]. The GI50 in [7] was 6.04 µM; in assay [8], 11.8 µM; in [9], 18.5 µM; in [10], 14.2 µM. For the same molecule, the TGI in [1] was determined as 26.8 µM; in [2] it was 32.4 µM; in [3], 14.2 µM; in assay [4], 31.1 µM; in [5] it was 29.1 µM; in assay [6], 38.6 µM. In addition, the TGI worked out at 12.4 µM in assay [7], 25.1 µM in assay [8], 34.9 µM in assay [9] and 33 µM in [10].

For the molecule `CNC(=O)CCN1CCN(CC/C=C2\c3ccccc3Sc3ccc(Cl)cc32)CC1`, the GI50 in assay [1] is 12.1 µM; in assay [2], 13.8 µM; in [3], 2.48 µM; in assay [4], 11.9 µM; in assay [5], 3.11 µM; in assay [6], 1.84 µM. Moreover, the GI50 in assay [7] is 1.76 µM; in assay [8], 2.41 µM; in [9] it was 14 µM; in assay [10] it was 7.22 µM. Also, the TGI was 27.4 µM in [1]; 27.1 µM in [2]; 6 µM in assay [3]; 26.4 µM in assay [4]; 12.4 µM in [5]; 6.47 µM in [6]. For the same molecule, the TGI worked out at 3.36 µM in [7], 6.18 µM in assay [8], 29.2 µM in assay [9] and 20.7 µM in assay [10].

For `CCSC[C@@H]1C[C@](O)(c2ccccc2)[C@@H](c2ccccc2)O1`, the GI50 in assay [1] is > 100 µM; in [2], > 88 µM; in assay [3] it was > 78.9 µM; in [4], > 100 µM; in assay [5] it was 69.6 µM; in assay [6], 46.2 µM. Also, the GI50 is > 100 µM in [7], 44.4 µM in assay [8], > 91.7 µM in assay [9] and 99.1 µM in assay [10]. For the same molecule, the TGI in [1], in assay [2], in assay [3], in assay [4], in assay [5] and in [6] was > 100 µM throughout. Moreover, the TGI in [7], in assay [8], in assay [9] and in assay [10] was > 100 µM throughout.

Turning to `Cn1c(=O)c(-c2ccccc2Cl)cc2cnc(NC3CCOCC3)nc21`, the GI50 in assay [1] was 13.1 µM; in assay [2], 4.64 µM; in assay [3], 9.61 µM; in [4], 12.3 µM; in [5], 7.02 µM; in assay [6], 12.1 µM. Further, the GI50 was 10.7 µM in [7], 11 µM in [8], 6.19 µM in assay [9] and 15.1 µM in [10]. Also, the TGI in assay [1], in assay [2], in assay [3], in assay [4], in assay [5] and in assay [6] was > 25 µM in each case. In addition, the TGI in [7] was > 25 µM; in assay [8], > 25 µM; in assay [9] it was > 22.9 µM; in assay [10], > 25 µM.

As for `CC[C@H](C)[C@H](NC(=O)C12C3C4C1C1C2C3C41NC)C(=O)N(C)[C@H](C[C@@H](OC(C)=O)c1nc(C(=O)N[C@@H](Cc2ccccc2)C[C@H](C)C(=O)OC)cs1)C(C)C` (stereo not given in full), the GI50 in assay [1] was 0.76 µM; in assay [2], 1.21 µM; in assay [3] it was 0.402 µM; in assay [4] it was 0.446 µM; in assay [5] it was 0.29 µM; in assay [6], 0.526 µM. Besides, the GI50 in assay [7] was 0.714 µM; in assay [8], 0.159 µM; in assay [9] it was > 4 µM; in assay [10], 0.594 µM. In addition, the TGI in assay [1] is > 14.3 µM; in [2], > 14.3 µM; in assay [3], 2.51 µM; in assay [4] it was > 14.3 µM; in [5], > 4.78 µM; in assay [6] it was > 9.29 µM. Moreover, the TGI is > 14.3 µM in [7], 2.85 µM in assay [8], > 14.3 µM in [9] and > 14.3 µM in assay [10].

On to `OCCCN=C1CCCCC1`, for which the TGI in assay [1], in assay [2], in assay [3], in [4], in [5] and in [6] was > 100 µM throughout. Further, the TGI in [7], in [8], in [9] and in assay [10] was > 100 µM each time.

In the case of `N=C(N)c1ccc2oc3ccc(C(=N)N)cc3c(=O)c2c1`, the TGI in [1], in assay [2], in assay [3], in assay [4], in assay [5] and in [6] was > 100 µM in each case. Besides, the TGI in [7], in assay [8], in assay [9] and in assay [10] was > 100 µM in each case.

With `COC1C(OC(=O)c2ccc(C)[nH]2)C(O)C(Oc2ccc3c(O)c(NC(=O)c4ccc(O)c(CC=C(C)C)c4)c(=O)oc3c2Cl)OC1(C)C` (stereo not given), the TGI in assay [1] came to 31.9 µM; in [2], 77.5 µM; in [3] it was 52.8 µM; in [4], 75.4 µM; in [5], 29.7 µM; in [6], 43.4 µM. For the same molecule, the TGI in assay [7] was 32.9 µM; in [8], 35.6 µM; in [9] it was > 100 µM; in assay [10], 26.8 µM.

Turning to `COc1cc(-c2nc(-c3ccccc3)c(-c3ccccc3)[nH]2)cc(OC)c1O`, the GI50 in assay [1] was 19.9 µM; in [2], 14.2 µM; in assay [3] it was 19.6 µM; in [4], 17 µM; in assay [5], 17.4 µM; in assay [6], 17.1 µM. Besides, the GI50 in [7] is 14.9 µM; in [8], 14.2 µM; in assay [9] it was 25.1 µM; in assay [10], 16.3 µM. For the same molecule, the TGI in assay [1] worked out at 44 µM; in assay [2], 33.1 µM; in [3], 36.4 µM; in assay [4], 32.1 µM; in assay [5], 35.6 µM; in assay [6], 45.5 µM. In addition, the TGI in [7] was determined as 31.1 µM; in assay [8], 27.6 µM; in assay [9], 50.5 µM; in [10], 33.2 µM.

As for `Cc1cc(C)c2nc3c(c(C(O)C4CCCCN4)c2c1)CC/C3=C\c1ccc(Cl)cc1` (stereo not given), the TGI in assay [1], in [2], in [3], in [4], in assay [5] and in [6] was > 100 µM throughout. The TGI is > 100 µM in assay [7], 92.2 µM in assay [8], > 100 µM in [9] and > 100 µM in [10].

Source of the values: PubChem BioAssay (NCI).
